{"source": "patent US12630765B2", "about": "“Fertilizer composition for reducing methane gas emission comprising ethephon and uses thereof” (priority 2020, dated 2026)", "key": {"[1]": {"test_system": "methanogens in soils", "experiment": "Methane concentration in headspace of soils at fresh water conditions treated with Co-M structural analogues", "settings": "for Methane concentration in headspace: 20 mg/kg in soils at fresh water conditions, cultivation for 50 days; for methane emission amount reduced compared to the control: 20 mg/kg in soils, 50 days, vs soils without sample treatment", "text": "(§1) It is known that coenzyme M (hereinbelow, “Co-M”), which is produced during the intercellular reactions of methanogens, is an inhibitor for specifically inhibiting the methanogenic activity of methanogens. Accordingly, ethephon was selected in the present invention as a structural analogue of Co-M. Specifically, CES (2-chloroethane sulfonate), BES (2-bromoethane sulfonate), and MES (2-mercaptoethane sulfonate) that are known as a structural analogue of Co-M, and ethephon (IUPAC name: 2-chloroethyl phosphonic acid) selected as a structural analogue of Co-M in the present invention were applied, each at the same concentration (20 mg/kg), to soils at fresh water conditions. Then, along with cultivation for 50 days, methane concentration in headspace and activity of the methanogens in soils were measured.\n(§2) First, methane concentration in headspace was measured and emission amount of methane gas was analyzed."}, "[2]": {"test_system": "methanogens in soils (mcrA, methyl coenzyme-M reductase gene)", "experiment": "Activity of methanogens in soils (mcrA gene copy number)", "settings": "for Activity of methanogens (mcrA gene copy no./g soil): 20 mg/kg in soils at fresh water conditions, cultivation for 50 days; for mcrA gene copy number reduced compared to the control: 20 mg/kg in soils, 50 days, vs control", "text": "as §1, §2"}, "[3]": {"test_system": "rice", "experiment": "Yield property of rice after fertilizer application", "format": "in vivo, Oryza sativa", "procedure": "(§3) Fertilizer composition prepared by mixing ethephon, cellulose acetate, and gypsum at various mixing ratios was applied in an amount of 2 ton/ha to soils of flooded rice paddies before rice transplanting. Then, emission amount of methane during the subsequent process of cultivating rice, effect of inhibiting methane emission, and yield property of rice were analyzed."}, "[4]": {"test_system": "methanogens in soils of flooded rice paddies", "experiment": "Methane emission from soils of flooded rice paddies during rice cultivation after fertilizer application", "format": "in vivo", "settings": "for Methane emission: applied before rice transplanting", "procedure": "To acetone in which ethephon has been dissolved at various concentrations based on the blending ratio described in the following Table 4, cellulose acetate was added and dissolved therein. After mixing the resultant with gypsum and drying the mixture till to have evaporation of acetone, the mixture was crushed to have particle size of not more than 2 mm. Accordingly, fertilizer capable of reducing methane emission amount by delaying the ethephon degradation in soils was prepared. Since acetone is highly volatile so that it can completely evaporate during the process of mixing and drying ethephon, cellulose acetate, and gypsum, it is used in minimum amount depending on the total amount of mixture. Meanwhile, the ethephon treatment amount of 2 kg/ha, 6 kg/ha, and 10 kg/ha means that ethephon is applied at concentration of 1 mg/kg, 3 mg/kg, and 5 mg/kg (ppm), respectively, in soils.\nas §3"}, "[5]": {"settings": "ethephon 2 kg/ha with gypsum 1940 kg/ha and CA 60 kg/ha"}, "[6]": {"settings": "ethephon 6 kg/ha with gypsum 1940 kg/ha and CA 60 kg/ha"}, "[7]": {"settings": "ethephon 10 kg/ha with gypsum 1940 kg/ha and CA 60 kg/ha"}}, "data": [{"smiles": "O=S(=O)([O-])CCBr.[Na+]", "note": "[BES, 2-bromoethane sulfonate]", "values": [{"measurement": "Methane concentration in headspace", "setting": "[1]", "result": 4.4, "unit": "mg/L"}, {"measurement": "methane emission amount reduced compared to the control", "setting": "[1]", "result": "~56", "unit": "%"}, {"measurement": "Activity of methanogens (mcrA gene copy no./g soil)", "setting": "[2]", "result": "1.65 × 10^6 mcrA gene copy no./g soil"}, {"measurement": "mcrA gene copy number reduced compared to the control", "setting": "[2]", "result": "~45", "unit": "%"}]}, {"smiles": "O=S(=O)([O-])CCCl.[Na+]", "note": "[CES, 2-chloroethane sulfonate]", "values": [{"measurement": "Methane concentration in headspace", "setting": "[1]", "result": 5.1, "unit": "mg/L"}, {"measurement": "methane emission amount reduced compared to the control", "setting": "[1]", "result": "about 48%"}, {"measurement": "Activity of methanogens (mcrA gene copy no./g soil)", "setting": "[2]", "result": "1.86 × 10^6 mcrA gene copy no./g soil"}, {"measurement": "mcrA gene copy number reduced compared to the control", "setting": "[2]", "result": "about 39%"}]}, {"smiles": "O=P(O)(O)CCCl", "note": "[Ethephon, 2-chloroethyl phosphonic acid]", "values": [{"measurement": "Methane concentration in headspace", "setting": "[1]", "result": 4.4, "unit": "mg/L"}, {"measurement": "methane emission amount reduced compared to the control", "setting": "[1]", "result": "~56", "unit": "%"}, {"measurement": "Grain yield", "setting": "[3]; [5]", "result": 6331, "unit": "kg/ha"}, {"measurement": "Straw yield", "setting": "[3]; [5]", "result": 6964, "unit": "kg/ha"}, {"measurement": "Yield index", "setting": "[3]; [5]", "result": 100}, {"measurement": "change in rice yield in relation to the application amount of ethephon", "setting": "[3]; ethephon 2 to 10 kg/ha in fertilizer", "result": "no significant change in rice yield"}, {"measurement": "Grain yield", "setting": "[3]; [6]", "result": 6298, "unit": "kg/ha"}, {"measurement": "Straw yield", "setting": "[3]; [6]", "result": 6928, "unit": "kg/ha"}, {"measurement": "Yield index", "setting": "[3]; [6]", "result": 99.6}, {"measurement": "Grain yield", "setting": "[3]; [7]", "result": 6315, "unit": "kg/ha"}, {"measurement": "Straw yield", "setting": "[3]; [7]", "result": 6946, "unit": "kg/ha"}, {"measurement": "Yield index", "setting": "[3]; [7]", "result": 99.9}, {"measurement": "Effect of inhibiting methanogenesis", "setting": "[4]; [5]", "result": 50.5, "unit": "%"}, {"measurement": "Methane emission", "setting": "[4]; [5]", "result": 36.9, "unit": "kg CH4 ha^−1"}, {"measurement": "Effect of inhibiting methanogenesis", "setting": "[4]; [6]", "result": 78.6, "unit": "%"}, {"measurement": "Methane emission", "setting": "[4]; [6]", "result": 15.9, "unit": "kg CH4 ha^−1"}, {"measurement": "Effect of inhibiting methanogenesis", "setting": "[4]; [7]", "result": 98.1, "unit": "%"}, {"measurement": "Methane emission", "setting": "[4]; [7]", "result": 1.4, "unit": "kg CH4 ha^−1"}, {"measurement": "Effect of inhibiting methanogenesis", "setting": "[4]; ethephon 10 kg/ha with gypsum 1940 kg/ha and CA 60 kg/ha, listed as ethephon", "result": "about 98.1%"}, {"measurement": "methane gas emission amount from flooded rice paddies", "setting": "[4]; fertilizer containing ethephon vs fertilizer not containing any ethephon", "result": "significantly lower"}, {"measurement": "Activity of methanogens (mcrA gene copy no./g soil)", "setting": "[2]", "result": "1.35 × 10^6 mcrA gene copy no./g soil"}, {"measurement": "mcrA gene copy number reduced compared to the control", "setting": "[2]", "result": "~55", "unit": "%"}]}]}
